Values of other authors in paper PMC11674187, “Inhibitory Effects of Cenobamate on Multiple Human Cardiac Ion Channels and Possible Arrhythmogenic Consequences” (Biomolecules, 2024).

What was measured:
[1] = tested on: human ventricular cardiomyocyte electrophysiology model; set-up: method as in ref [18] Dutta et al., 2017; details: 12-compound CiPA training set; ref [18] Dutta et al., 2017; cited from earlier work
persistent INa = tested on: persistent INa; set-up: method as in ref [5] p. 8; details: other antiseizure drugs; ref [5] p. 8; cited from earlier work
Nav1.5 = Nav1.5 (Homo sapiens, UniProt Q14524); set-up: method as in PMID 34785211, PMID 33620150; details: PT 35–37 °C vs. room temperature; ref [11],[40]; cited from earlier work
Nav1.5, sequence (Q14524 whole entry): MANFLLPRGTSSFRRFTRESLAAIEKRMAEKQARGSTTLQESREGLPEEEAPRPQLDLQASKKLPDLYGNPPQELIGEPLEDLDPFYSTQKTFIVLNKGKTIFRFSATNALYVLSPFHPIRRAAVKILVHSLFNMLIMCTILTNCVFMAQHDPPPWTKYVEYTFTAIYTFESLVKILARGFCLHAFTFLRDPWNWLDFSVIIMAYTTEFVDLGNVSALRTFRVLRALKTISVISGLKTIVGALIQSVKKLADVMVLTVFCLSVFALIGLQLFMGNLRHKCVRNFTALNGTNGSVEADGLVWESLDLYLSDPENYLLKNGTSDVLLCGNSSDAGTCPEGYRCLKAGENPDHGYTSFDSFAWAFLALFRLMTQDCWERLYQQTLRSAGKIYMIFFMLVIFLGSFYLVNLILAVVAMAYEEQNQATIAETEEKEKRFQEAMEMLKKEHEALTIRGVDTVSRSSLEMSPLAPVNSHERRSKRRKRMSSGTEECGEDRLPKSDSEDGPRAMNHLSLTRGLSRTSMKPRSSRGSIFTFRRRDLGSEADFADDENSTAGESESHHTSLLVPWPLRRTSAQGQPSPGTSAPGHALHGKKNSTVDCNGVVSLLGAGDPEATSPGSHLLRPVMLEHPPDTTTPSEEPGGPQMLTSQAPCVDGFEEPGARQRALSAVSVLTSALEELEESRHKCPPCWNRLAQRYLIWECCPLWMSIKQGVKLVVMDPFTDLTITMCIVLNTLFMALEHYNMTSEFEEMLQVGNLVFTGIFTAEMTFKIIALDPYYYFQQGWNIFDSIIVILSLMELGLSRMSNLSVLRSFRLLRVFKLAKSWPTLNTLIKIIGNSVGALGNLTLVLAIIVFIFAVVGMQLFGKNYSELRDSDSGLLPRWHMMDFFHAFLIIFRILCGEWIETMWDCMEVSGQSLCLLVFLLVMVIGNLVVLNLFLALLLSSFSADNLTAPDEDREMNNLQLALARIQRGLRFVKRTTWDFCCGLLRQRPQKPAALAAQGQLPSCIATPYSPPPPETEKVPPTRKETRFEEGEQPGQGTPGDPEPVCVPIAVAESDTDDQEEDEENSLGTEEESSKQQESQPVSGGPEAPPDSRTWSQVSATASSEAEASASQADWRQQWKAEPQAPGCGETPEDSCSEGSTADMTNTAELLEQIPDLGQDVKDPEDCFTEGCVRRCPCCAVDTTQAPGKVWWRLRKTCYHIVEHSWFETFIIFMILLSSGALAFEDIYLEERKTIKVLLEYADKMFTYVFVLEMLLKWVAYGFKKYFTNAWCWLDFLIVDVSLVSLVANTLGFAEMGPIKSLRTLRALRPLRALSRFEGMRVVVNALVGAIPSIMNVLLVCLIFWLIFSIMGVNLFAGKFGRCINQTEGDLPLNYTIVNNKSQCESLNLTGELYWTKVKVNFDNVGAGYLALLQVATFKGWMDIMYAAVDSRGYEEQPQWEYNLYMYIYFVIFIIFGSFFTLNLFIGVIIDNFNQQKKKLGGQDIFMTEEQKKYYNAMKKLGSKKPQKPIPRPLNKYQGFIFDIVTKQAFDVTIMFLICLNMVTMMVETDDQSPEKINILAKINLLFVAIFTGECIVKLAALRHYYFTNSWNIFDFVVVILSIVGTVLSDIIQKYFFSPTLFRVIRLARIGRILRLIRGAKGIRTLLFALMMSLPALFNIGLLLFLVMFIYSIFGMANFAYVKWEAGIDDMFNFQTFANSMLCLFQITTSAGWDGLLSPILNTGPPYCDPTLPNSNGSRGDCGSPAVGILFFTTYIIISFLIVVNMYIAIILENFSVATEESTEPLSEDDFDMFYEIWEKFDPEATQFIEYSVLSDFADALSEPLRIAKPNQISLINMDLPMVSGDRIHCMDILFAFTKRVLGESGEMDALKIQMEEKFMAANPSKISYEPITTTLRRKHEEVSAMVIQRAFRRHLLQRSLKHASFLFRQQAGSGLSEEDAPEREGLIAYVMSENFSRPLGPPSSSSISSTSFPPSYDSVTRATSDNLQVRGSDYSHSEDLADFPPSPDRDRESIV

SMILES | CiPA torsadogenic risk category [1] | further results
CC(C)COCC(CN(Cc1ccccc1)c1ccccc1)N1CCCC1 (stereo not shown) [bepridil] | high risk | 
NC(=O)N1c2ccccc2C=Cc2ccccc21 [carbamazepine] |  | IC50 (persistent INa): 79.2 µM
CCN(CC)CCCC(C)Nc1ccnc2cc(Cl)ccc12 (stereo not shown) [chloroquine] |  | change of apparent IC50 on peak Na+ current at physiological vs. room temperature (Nav1.5): approximately four-fold reduction
CN(C)CCCN1c2ccccc2Sc2ccc(Cl)cc21 [chlorpromazine] | intermediate risk | 
COc1cc(N)c(Cl)cc1C(=O)NC1CCN(CCCOc2ccc(F)cc2)CC1OC (stereo not shown) [cisapride] | intermediate risk | 
CN(CCOc1ccc(NS(C)(=O)=O)cc1)CCc1ccc(NS(C)(=O)=O)cc1 [dofetilide] | high risk | 
CCN(CCO)CCCC(C)Nc1ccnc2cc(Cl)ccc12 (stereo not shown) [hydroxychloroquine] |  | change of apparent IC50 on peak Na+ current at physiological vs. room temperature (Nav1.5): more than a two-fold reduction
Nc1nnc(-c2cccc(Cl)c2Cl)c(N)n1 [lamotrigine] |  | IC50 (persistent INa): 119 µM
Cc1cccc(C)c1OCC(C)N (stereo not shown) [mexiletine] | low risk | 
Cc1nccn1CC1CCc2c(c3ccccc3n2C)C1=O (stereo not shown) [ondansetron] | intermediate risk | 
C=C[C@H]1C[N@@]2CC[C@H]1C[C@@H]2[C@@H](O)c1ccnc2ccc(OC)cc12 [quinidine] | high risk | 
COc1ccccc1OCC(O)CN1CCN(CC(=O)Nc2c(C)cccc2C)CC1 (stereo not shown) [ranolazine] | low risk | 
Nc1nc2ccc(OC(F)(F)F)cc2s1 [riluzole] |  | IC50 (persistent INa): 2 µM
